Reference: patent publication US6812025B2, “Two hybrid assay that detects HIV-1 reverse transcriptase dimerization” (priority 2000, dated 2004)

Columns and labels:
p66-His and GST-p51 = p66-His and GST-p51 (Human immunodeficiency virus type 1 group M subtype B, UniProt P04585); format: binding, HIV-1; conditions: for enhancement of dimerization of GST-p51 and p66-His in vitro: bacterial lysates, 1-1000 fold molar excess of drug, overnight
Experimental: Cells were induced and then lysed by the addition of 1 mg/ml of lysozyme to 1 ml of lysis buffer [50 mM sodium phosphate buffer (pH 7.8), 500 mM NaCl, 0.5% Nonidet P-40, 5 mM DTT, and 1 μg/ml each of pepstatin A, aprotinin and leupeptin] and clarified. Lysates were combined and incubated for 16 hrs at 4° C. The heterodimer was captured on Glutathione Sepharose 4B beads and unbound subunits were removed by washing with lysis buffer. Heterodimer bound to beads were resolved by SDS/PAGE. For quantification of RT activity, dimers were eluted from beads with 10 mM reduced glutathione in 50 mM Tris (pH 8.0). Samples were assayed for DNA polymerase activity on homopolymeric template-primers for various times, and the activity was determined from the initial slope of the linear phase of the time course.

p66/p51 heterodimer [1] = molecular target: T1, p66/p51 heterodimer (Human immunodeficiency virus type 1 group M subtype B, UniProt P12497); conditions: cited from earlier work
T1 construct: The enzyme is a heterodimer of p66 and p51 subunits

p66/p51 heterodimer [2] = molecular target: T1, p66/p51 heterodimer; assay: Y2H system, preliminary tests of TSAO on heterodimerization; format: cell-based, HIV-1; conditions: data not shown
Experimental: (§1) Transformation of yeast and the qualitative β-galactosidase (β-gal) colony lift assay were as published (19). Quantification of protein-protein interactions was determined using the β-gal liquid assay performed on permeabilized yeast grown from three independent transformants using orthonitrophenyl-β-D-galactopyranoside as substrate (19).
To date, there are no HIV-1 RT dimerization inhibitors being used in the clinic. Nevertheless, there are several reports of HIV-1 and HIV-2 RT dimerization inhibitors based on peptides representing the conserved tryptophan repeat region of RT (32, 37). […] However, the possibility that the drug is not taken up by yeast cannot be ruled out. The availability of a Y2H assay for RT dimerization will facilitate the screening for other such inhibitors of this process according to the methods set forth herein.

HIV-1 = conditions: cited from earlier work
[3] = molecular target: p66 and p51 subunits of the HIV-1 RT (Human immunodeficiency virus type 1 group M subtype B, UniProt P12497); assay: Y2H RT heterodimerization assay measuring effect of NNRTIs on b-gal activity (wild-type lexA87-66 + Gal4AD-51); format: cell-based; conditions: for enhancement of b-gal activity (relative potency): yeast expressing lexA87-66 and Gal4AD-51, drug added to culture medium
Experimental: as §1
Yeast and bacterial strains were as described previously (22). Transformation of yeast, the qualitative b-gal colony lift assay and the quantitative b-gal liquid assay were as previously described (22).
CTY10-5d transformed constructs expressing p66 bait and p51 prey fusions were grown overnight to stationary phase in synthetic complete medium without histidine and leucine and containing 2% glucose (SC-His-Leu). […] Yeast were grown with aeration at 30° C. to OD600=0.5. The equivalent of 1 OD600 unit was pelleted for each treatment and subjected to a quantitative b-gal liquid assay.
To test the effects of NNRTIs on the association of the RT polypeptides we used a yeast genetic assay that measures RT heterodimerization (22). […] To test for the effects of the NNRTIs on this interaction, 10 drugs representing 7 different NNRTI classes were added to the culture medium during growth of the yeast and b-gal levels were determined.

HIV-1 RT = HIV-1 RT (Human immunodeficiency virus type 1 group M subtype B, UniProt P12497); assay: Exogenous RT assay (RT inhibitory activity); format: biochemical; conditions: results not shown
RT heterodimer = molecular target: T2, RT heterodimer (Human immunodeficiency virus type 1 group M subtype B, UniProt P12497); conditions: cited from earlier work
T2 construct: The enzyme is a heterodimer of p66 and p51 subunits

[4] = molecular target: T3, lexA87-66L234A and Gal4AD-HA-51L234A (Human immunodeficiency virus type 1 group M subtype B, UniProt P04585, L821A); format: cell-based, HIV-1; conditions: yeast grown in efavirenz (1.6 μM) or UC781 (16 μM), compared to no drug
T3 construct: Yeast expressing p66 bait and p51 prey fusions containing the L234A mutation; expressed in transfected cells; host or cells: Saccharomyces cerevisiae CTY10-5d
Text: Samples were resolved by SDS-PAGE. The leXA87-66 fusion protein was probed using monoclonal antibodies 7E5 which specifically detects p66 (31).
Hemagglutinin (HA) antibodies were used to immunoprecipitate the p51 prey and the presence of any bound p66 bait was then detected using anti-p66 specific antibodies. For coimmunoprecipitation of the p66 bait fusions, samples were divided into two with one part processed without added NNRTI while the other was maintained in drug at the same concentration used during growth of yeast.

lexA87 and Gal4AD = molecular target: T4, lexA87 and Gal4AD (UniProt P04386+P0A7C2); assay: Y2H specificity control, empty vectors pSH2-1 and pGADNOT; format: cell-based; conditions: serial dilutions, up to 15 μM of drug; data not shown
T4 construct: expressed in transfected cells; host or cells: Saccharomyces cerevisiae (yeast reporter strain)
T4 sequence (P0A7C2 1-87): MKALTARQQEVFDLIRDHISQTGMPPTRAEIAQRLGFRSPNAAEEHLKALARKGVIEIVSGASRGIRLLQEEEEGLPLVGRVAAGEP
T4 sequence (P04386 768-881): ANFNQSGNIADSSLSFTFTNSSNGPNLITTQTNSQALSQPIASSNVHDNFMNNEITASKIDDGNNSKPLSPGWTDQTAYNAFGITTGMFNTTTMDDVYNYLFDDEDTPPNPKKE
Text: The specificity of the b-gal enhancement by NNRTIs was investigated. […].

Compound: 2′, 5′-bis-O-(tert-butylidimethylsilyl)-3′-spiro-5″-4″-amino-1′, 2″-oxothiole-2″,2″-dioxide)]-b-D-pentofuranosyl [TSAO]
- effect on heterodimerization in in vitro binding assays (p66-His and GST-p51; preliminary tests, data not shown): reduce heterodimerization
- destabilization of the p66/p51 heterodimer (p66/p51 heterodimer [1]): destabilize the p66/p51 heterodimer
- effect on β-gal activity in the Y2H system (p66/p51 heterodimer [2]): no inhibition of β-gal activity

Compound: COc1ccc2c(c1)N(C(=O)OC(C)C)[C@@H](CSC)C(=S)N2 [HBY 097]
- inhibition of HIV-1 replication in vitro (HIV-1): extremely potent inhibitors of HIV-1 replication in vitro
- enhancement of b-gal activity (relative potency) [3]: most potent

Compound: CCn1c(=O)c(C)cn([C@@H]2O[C@H](CO[Si](C)(C)C(C)(C)C)C3(OS(=O)(=O)C=C3N)[C@H]2O[Si](C)(C)C(C)(C)C)c1=O (stereo partly drawn) [TSAOe^3T]
- destabilization of the p66/p51 heterodimer (p66/p51 heterodimer [1]): more modest destabilization only detectable in the presence of denaturants

Compound: Cc1occc1C(=S)Nc1ccc(Cl)c(/C=N/OC(C)(C)C)c1 [UC10]
- enhancement of dimerization of GST-p51 and p66-His in vitro (p66-His and GST-p51): poor dimerization inducers

Compound: CC(C)OC(=O)c1cc(NC(=S)OC(C)C)ccc1Cl [UC38]
- RT inhibitory activity (50% inhibitory concentration), rank (HIV-1 RT): least active
- concentration of drug that mediates a 5-fold increase in b-gal activity (rank) ([3]; results not shown): least active

Compound: CC(C)=CCOc1cc(NC(=S)c2ccoc2C)ccc1Cl [UC781]
- enhancement of dimerization of GST-p51 and p66-His in vitro (p66-His and GST-p51): poor dimerization inducers
- inhibition of HIV-1 replication in vitro (HIV-1): extremely potent inhibitors of HIV-1 replication in vitro
- enhancement of b-gal activity (relative potency) [3]: second most potent
- binding to the RT heterodimer (RT heterodimer): bind very tightly
- dissociation rates (koff) (RT heterodimer): very slow dissociation rates
- amount of p66 bait coimmunoprecipitated with p51 prey (heterodimer formation), L234A [4]: not for the L234A mutant

Compound: CC(C)Nc1cccnc1N1CCN(C(=O)c2cc3cc(NS(C)(=O)=O)ccc3[nH]2)CC1 [delavirdine]
- enhancement of dimerization of GST-p51 and p66-His in vitro (p66-His and GST-p51): inactive in vitro
- enhancement of b-gal activity (relative potency) [3]: devoid of b-gal enhancing activity

Compound: O=C1Nc2ccc(Cl)cc2[C@@](C#CC2CC2)(C(F)(F)F)O1 [efavirenz]
- b-gal activity with empty vectors (lexA87 and Gal4AD): no increase in b-gal activity
